pEC50: −log10 of the molar value. A value given as a limit tells only on which side of the number the result lay.

What is called pEC50 is −log10 of the EC50, conventionally taken in molar units. A word on the Emax: it is the greatest response seen or fitted, relative to the assay's reference.

Type in all cases: cell-based
For experiment [1], the system named is peripheral blood mononuclear cells (PBMC). Put plainly: Stimulation of IL12 secretion from PBMC (ELISA). The conditions noted are these: minimum effective concentration, human PBMC, 24 hours. As to the method:
(§1) The stimulating effect of the compounds of the present invention on the ability of secretion of IL12 and IFN γ from PBMC was determined by the following experimental method.
(§2) • 1. RMPI 1640 (Invitrogen, 11875); • 2. FBS (Gibco, 10099-141); • 3. Ficoll-Paque PREMIUM (GE, 17-5442-02); • 4. Trypan blue solution (Sigma, T8154-100 ML); • 5. SepMate™-50 (Stemcell, 15460); • 6. Bright-LineIM blood cell counter (Sigma, Z359629-1EA); • 7. 96-well cell culture plate (Corning, 3599); • 8. 96-well v-bottom plate (Corning, 3894); • 9. Human IL-12 ELISA kit (Neobioscience Technology Co., EHC152.96); • 10. Human IFN γ kit (cisbio, 62HIFNGPEG); and • 11. PHERAStar multi-function microplate reader (BMG, PHERAStar). II. Experimental Procedures
(§3) The compound was diluted with pure DMSO to a maximum concentration of 5 mM, and a total of 9 points were obtained by a 4-fold gradient dilution. 4 μl of the compound solution was then added to 196 μl of RMPI 1640 medium containing 10% FBS and mixed well. 50 μl of the mixture was taken and added to a 96-well cell culture plate.
(§4) All reagents were equilibrated to room temperature. 60 ml of blood from a healthy human and the same volume of PBS (containing 2% FBS) were added to a 250 ml culture flask, gently pipetted, mixed well and diluted. 15 ml of lymphocyte separation solution Ficoll-Paque PREMIUM was added to a 50 ml PBMC centrifuge tube SepMate™-50, followed by the addition of 30 ml of the above diluted blood. The mixture was centrifuged at 1200 g for 10 minutes at room temperature. The supernatant was taken and then centrifuged at 300 g for 8 minutes. The cells were re-suspended in the RMPI 1640 medium containing 10% FBS and counted, and the number of PBMCs was adjusted to 3.33×10^6 cells/ml. 150 μl of the cell solution was added to the plate containing the compounds, and incubated in an incubator at 37° C., 5.0% CO2 for 24 hours. The cell culture plate was placed in a centrifuge, and centrifuged at 1200 rpm for 10 minutes at room temperature. 150 μl of the supernatant was taken from each well.
The reagents in the Human IL-12 ELISA kit were equilibrated to room temperature. According to the kit's instruction, the highest concentration of the standard is 2000 pg/ml, and a total of 8 points were obtained by a 2-fold gradient dilution. The sample to be tested was diluted 20 folds. The solution was then added to a pre-coated plate at 100 μl/well. The plate was incubated at 37° C. for 90 minutes and rinsed. The […] was added at 100 μl/well, and the plate was incubated at 37° C. for 60 minutes and rinsed. HRP binding enzyme was added at 100 μl/well, and the plate was incubated at 37° C. for 30 minutes and rinsed. TMB was added, and the plate was incubated at room temperature for 5 minutes. Finally, the stop solution was added to stop the reaction, and the absorbance at 450 nm was read by the microplate reader.
(§5) The concentration of the compound that can stimulate PBMC to produce […] that is 3 times higher than the average value of the group without the compound (SD of the group without the compound) was defined as the minimum effective concentration (MEC) value of the compound.
Background: ELISA stands for enzyme-linked immunosorbent assay.

For experiment [2] the test system is unchanged. Put plainly: Stimulation of IFNγ secretion from PBMC. The conditions noted are these: minimum effective concentration, human PBMC, 24 hours. As to the method:
as §1, §2, §3, §4
The reagents in the Human IFN γ test kit were equilibrated to room temperature. The standard and detection antibody were prepared according to the kit's instruction under dark conditions. 16 μl of the supernatant obtained by centrifugation was added to each well, and 4 μl of freshly prepared mixed detection antibody was added to each well. The solution was mixed well by shaking, and incubated overnight in the dark at room temperature. The plate was read by the PHERAStar multi-function microplate reader.
as §5

Experiment [3] addresses human TLR7 (Homo sapiens (Human), UniProt Q9NYK1). Put plainly: Agonist activity on human TLR7 in HEK-Blue hTLR7 cells. As to conditions: 16 hours, OD 620 nm. How it is done: • 1. DMEM(Gibco, 10564-029); • 2. Fetal bovine serum (GIBCO, 10099); • 3. Trypan blue solution (Sigma, T8154-100 ML); • 4. Flexstation 3 multi-function microplate reader (Molecular Devices); • 5. HEK-Blue™ hTLR8 cell line (InvivoGen, hkb-hTLR8), or HEK-Blue™ hTLR7 cell line (InvivoGen, hkb-hTLR7); • 6. HEK-Blue detection reagent (InvivoGen, hb-det3); and • 7. Phosphate buffer solution (PBS) pH 7.4 (Shanghai Basalmedia Technologies Co., Ltd., B320). II. Experimental Procedures a. Determination of Agonist Activity on Human TLR8
A bag of HEK-Blue detection dry powder was dissolved in 50 ml of water free of endotoxin, and the solution was then placed in an incubator at 37° C. for 10 minutes followed by sterile filtration to prepare a HEK-Blue detection medium. The compound was firstly formulated into a 20 mM stock solution, then diluted with pure DMSO to a maximum concentration of 6×10^6 nM, and a total of 10 points were obtained by a 3-fold gradient dilution. The above formulated compound was firstly diluted 20-fold with the medium, then 20 μl of the diluted compound was added to each well.
The supernate was removed from the HEK-Blue™ hTLR7 cells, to which 2-5 ml of pre-warmed PBS was then added. The cells were placed in an incubator for 1-2 minutes, gently pipetted, and counted by trypan blue staining. The cells were re-suspended in the HEK-Blue detection medium to adjust the concentration to 2.2×10^5 cells/ml. 180 μl of cells was added to the above 96-well plate comprising 20 μl of the compound, and incubated at 37° C. for 16 hours.
The corresponding OD values were obtained by a microplate reader at a wavelength of 620 nm, and the EC50 values of the compounds were calculated by Graphpad Prism.

Chain of human TLR7 (Q9NYK1 27-1049): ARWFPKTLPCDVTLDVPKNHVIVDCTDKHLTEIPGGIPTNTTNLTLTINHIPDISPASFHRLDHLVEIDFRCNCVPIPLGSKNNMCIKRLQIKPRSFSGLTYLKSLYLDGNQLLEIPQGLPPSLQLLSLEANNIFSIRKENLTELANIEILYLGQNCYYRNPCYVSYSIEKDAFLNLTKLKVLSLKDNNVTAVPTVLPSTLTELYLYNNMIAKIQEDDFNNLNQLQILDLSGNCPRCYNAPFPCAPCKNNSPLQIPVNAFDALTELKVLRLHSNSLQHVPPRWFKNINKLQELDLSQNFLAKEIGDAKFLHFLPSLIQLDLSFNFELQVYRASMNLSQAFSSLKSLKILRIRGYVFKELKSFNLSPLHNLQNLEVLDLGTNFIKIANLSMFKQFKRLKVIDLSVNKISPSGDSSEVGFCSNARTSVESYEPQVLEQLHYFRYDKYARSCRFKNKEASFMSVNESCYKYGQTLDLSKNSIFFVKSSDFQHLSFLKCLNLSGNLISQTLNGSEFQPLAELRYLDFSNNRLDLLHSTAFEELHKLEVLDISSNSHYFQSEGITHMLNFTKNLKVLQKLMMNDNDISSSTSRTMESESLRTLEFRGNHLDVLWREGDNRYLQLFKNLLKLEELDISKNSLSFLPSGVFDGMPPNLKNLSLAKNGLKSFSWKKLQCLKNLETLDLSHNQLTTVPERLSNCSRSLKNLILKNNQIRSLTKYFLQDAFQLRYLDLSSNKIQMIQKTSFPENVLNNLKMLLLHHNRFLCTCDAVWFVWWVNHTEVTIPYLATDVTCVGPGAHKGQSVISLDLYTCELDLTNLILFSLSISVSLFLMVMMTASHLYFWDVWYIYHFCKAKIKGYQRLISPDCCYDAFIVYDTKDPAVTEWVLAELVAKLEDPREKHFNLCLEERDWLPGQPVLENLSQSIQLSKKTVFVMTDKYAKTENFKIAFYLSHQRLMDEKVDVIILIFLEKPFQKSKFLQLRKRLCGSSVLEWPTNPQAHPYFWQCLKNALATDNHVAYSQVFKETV

For the compound `CCCC[C@](C)(CO)Nc1nc(N)nc2cc(-c3ccc(CN4CCCC4)nc3)cnc12` [Example 2, (R)-2-((2-Amino-7-(6-(pyrrolidin-1-ylmethyl)pyridin-3-yl)pyrido[3,2-d]pyrimidin-4-yl)amino)-2-methylhexan-1-ol], in experiment [1], the “IL12 MEC” value came to 23 nM. The “IFNγ MEC” value in experiment [2] turned out to be 24 nM.
With `CCCC[C@](C)(CO)Nc1nc(N)nc2cc(-c3ccc(C4CCN(C)CC4)nc3)cnc12` [Example 4, (R)-2-((2-Amino-7-(6-(1-methylpiperidin-4-yl)pyridin-3-yl)pyrido[3,2-d]pyrimidin-4-yl)amino)-2-methylhexan-1-ol], the “IL12 MEC” value in experiment [1] was 31 nM. In experiment [2], the “IFNγ MEC” value is 33 nM. Besides, in experiment [3], the pEC50 was under 4.52 and the maximal response (Emax) was determined as 12%.
In experiment [3], `CCCCC(C)(CO)Nc1nc(N)nc2cc(-c3ccc(CN4CCN(C)CC4)nc3)cnc12` (centres unmarked) [Example 5, 2-((2-Amino-7-(6-((4-methylpiperazin-1-yl)methyl)pyridin-3-yl)pyrido[3,2-d]pyrimidin-4-yl)amino)-2-methylhexan-1-ol] had a pEC50 of under 4.52 and an Emax of 14%.
In the case of `CCCC[C@](C)(CO)Nc1nc(N)nc2cc(-c3ccc(CN4CCN(C)CC4)nc3)cnc12` [Example 6, (R)-2-((2-Amino-7-(6-((4-methylpiperazin-1-yl)methyl)pyridin-3-yl)pyrido[3,2-d]pyrimidin-4-yl)amino)-2-methylhexan-1-ol], the “IL12 MEC” value in experiment [1] came out at 41 nM. For the same compound, in experiment [3], the negative logarithm of the EC50 (pEC50) was under 4.52 and the Emax came out at 14%.
On to `CCCC[C@](C)(CO)Nc1nc(N)nc2cc(-c3cnc(C4CCN(C)CC4)nc3)cnc12` [Example 8, (R)-2-((2-Amino-7-(2-(1-methylpiperidin-4-yl)pyrimidin-5-yl)pyrido[3,2-d]pyrimidin-4-yl)amino)-2-methylhexan-1-ol], for which the “IL12 MEC” value in experiment [1] was determined as 5 nM. Besides, in experiment [3], the negative logarithm of the EC50 (pEC50) was under 4.72 and the maximal effect (Emax) amounted to 73%.
